Columns and labels:
[1] = test system: human neonatal dermal fibroblasts; assay: Type I collagen production: PIP (C-terminal peptide of type I procollagen) in culture supernatant by EIA; assay type: cell-based; conditions: for effect on promoting type I collagen production compared to the negative control (Bonferroni/Dunn test): under every concentration condition
Protocol: (§1) Commercially available human neonatal dermal fibroblasts (Cryo NHDF-Neo, manufactured by Sanko Junyaku Co., Ltd.) were used. The cells were inoculated in a commercially available 24-well plate to have 2×10^5 cells per well. The cells were then cultured for four hours in a commercially available medium for cell culture (D-MEM (1 g/L glucose), manufactured by Wako Pure Chemical Industries, Ltd.) to which 10% bovine fetal serum was supplemented (herein below, referred to as a “standard medium”) in a 5% CO2 and saturated water vapor atmosphere at 37° C. (degrees Celsius).
(§2) Subsequently, the medium was switched to a commercially available medium for cell culture (D-MEM (1 g/L glucose), manufactured by Wako Pure Chemical Industries, Ltd.) supplemented with 0.5% bovine fetal serum (herein below, referred to as “low-serum medium”) and cultured for approximately one day in a 5% CO2 and saturated water vapor atmosphere at 37° C. (degrees Celsius). D-aspartic acid (manufactured by Wako Pure Chemical Industries, Ltd., 018-04821) was added to the low-serum medium to have the concentration of 0.01 μM (micro-molar), 0.1 μM (micro-molar), […] μM (micro-molar), or 320 μM (micro-molar). As a positive control, magnesium L-ascorbyl phosphate (L-Ascorbic Acid Phosphate Magnesium Salt n-Hydrate, herein below, referred to as “APM”, manufactured by Wako Pure Chemical Industries, Ltd., 013-19641) was added to the low-serum medium to have the concentration of 150 μM (micro-molar), 250 μM (micro-molar), or 500 μM (micro-molar). Further, the low-serum medium described above to which neither APM nor D-aspartic acid had been added was employed as a negative control.
After completing the cell culture for two days, the culture supernatant was collected and the concentration of C-terminal peptide of type I procollagen (herein below, referred to as “PIP”) produced by human neonatal dermal fibroblasts was measured by using Procollagen type I C-peptide EIA kit (manufactured by Takara Bio Inc.) according to the manufacturer's instruction.
The cell culture, addition of amino acids, and quantification of production amount of type I collagen were carried out in the same manner as the Example 1. As an amino acid, D-alanine (manufactured by Peptide Institute, Inc., 2801) was used at the concentrations of 0.01 μM (micro-molar), 0.1 μM (micro-molar), 10 μM (micro-molar), 1000 μM (micro-molar), and 17400 μM (micro-molar). Further, the low-serum medium described above to which neither APM nor D-alanine had been added was employed as a negative control.
The cell culture, addition of amino acids, and quantification of production amount of type I collagen were carried out in the same manner as the Example 1. D-Aspartic acid (manufactured by Wako Pure Chemical Industries, Ltd., 018-04821) of 0.1 μM (micro-molar) and L-aspartic acid (manufactured by Wako Pure Chemical Industries, Ltd., 013-04832) of 0.1 μM (micro-molar) were used as amino acids. Further, the low-serum medium described above to which neither L-aspartic acid nor D-aspartic acid had been added was employed as a negative control.
The cell culture, addition of amino acids, and quantification of production amount of type I collagen were carried out in the same manner as the Example 1. D-Alanine (manufactured by Peptide Institute, Inc., 2801) of 0.1 μM (micro-molar) or 150 μM (micro-molar) and L-alanine (manufactured by Peptide Institute, Inc., 2701) of 0.1 μM (micro-molar) or 150 μM (micro-molar) were used as amino acids. Further, the low-serum medium described above to which neither L-alanine nor D-alanine had been added was employed as a negative control.

[2] = test system: human neonatal dermal fibroblasts; assay: Type I atelocollagen production after pepsin treatment, by type I human collagen ELISA; assay type: cell-based; conditions: for promotion of type I collagen production compared to the negative control (Bonferroni/Dunn test): 0.1 μM, atelocollagen ELISA
Protocol: as §1, §2
The cell culture and addition of amino acids were carried out in the same manner as the Example 1. D-Aspartic acid (manufactured by Wako Pure Chemical Industries, Ltd., 018-04821) of 0.1 μM (micro-molar) and D-alanine (manufactured by Peptide Institute, Inc., 2801) of 0.1 μM (micro-molar) or 0.001 μM (micro-molar) were used as amino acids. Further, the low-serum medium described above to which neither D-aspartic acid nor D-alanine had been added was employed as a negative control. As a positive control, APM was added to the low-serum medium described above to have the concentration of 250 μM (micro-molar). In order to evaluate the production amount of type I collagen, type I procollagen and tropocollagen produced by human neonatal dermal fibroblasts were treated with pepsin (800 to 2500 unit/mg, P7000, manufactured by SIGMA), and the concentration of type I atelocollagen was measured by type I human collagen ELISA (EC1-E105, manufactured by AC Biotechnologies) according to the manufacturer's instruction.

[3] = Example 3, added at 0.1 μM, negative control 361 ng/mL
[4] = Example 5 results (1), added at 0.1 μM, negative control 1.8 μg/mL
[5] = Example 4, added at 0.1 μM, negative control 361 ng/mL
[6] = Example 4, added at 150 μM, negative control 361 ng/mL

Compound: N[C@H](CC(=O)O)C(=O)O [D-aspartic acid]
- effect on promoting type I collagen production in comparison with APM ([1]; Example 1, 0.01 μM to 100 μM similar to APM at 150 μM): prominently more potent effect on promoting type I collagen production than APM
- PIP concentration ([1]; Example 1, added at 0.01 μM, negative control 583 ng/mL): 1286 ng/mL
- PIP concentration ([1]; Example 1, added at 0.1 μM, negative control 583 ng/mL): 1159 ng/mL
- PIP concentration ([1]; Example 1, added at 10 μM, negative control 583 ng/mL): 1117 ng/mL
- PIP concentration ([1]; Example 1, added at 100 μM, negative control 583 ng/mL): 1119 ng/mL
- PIP concentration ([1]; Example 1, added at 320 μM, negative control 583 ng/mL): 1007 ng/mL
- effect on promoting type I collagen production compared to the negative control (Bonferroni/Dunn test) ([1]; Example 1): statistically significant effect
- promotion of type I collagen production compared to the negative control (Bonferroni/Dunn test) ([1]; Example 3, 0.1 μM): promoted with statistical significance
- PIP concentration [1, 3]: 456 ng/mL
- promotion of type I collagen production compared to the negative control (Bonferroni/Dunn test) ([2]; Example 5 results (1)): promoted with statistical significance
- concentration of type I atelocollagen [2, 4]: 3.8 μg (microgram)/mL

Compound: C[C@@H](N)C(=O)O [D-alanine]
- PIP concentration ([1]; Example 2, added at 0.01 μM, negative control 551 ng/mL): 750 ng/mL
- PIP concentration ([1]; Example 2, added at 0.1 μM, negative control 551 ng/mL): 789 ng/mL
- PIP concentration ([1]; Example 2, added at 10 μM, negative control 551 ng/mL): 876 ng/mL
- PIP concentration ([1]; Example 2, added at 1000 μM, negative control 551 ng/mL): 823 ng/mL
- PIP concentration ([1]; Example 2, added at 17400 μM, negative control 551 ng/mL): 799 ng/mL
- effect on promoting type I collagen production compared to the negative control (Bonferroni/Dunn test) ([1]; Example 2): statistically significant effect
- promotion of type I collagen production compared to the negative control (Bonferroni/Dunn test) ([1]; Example 4, 0.1 μM or 150 μM): promoted with statistical significance
- PIP concentration [1, 5]: 502 ng/mL
- PIP concentration [1, 6]: 450 ng/mL
- promotion of type I collagen production compared to the negative control (Bonferroni/Dunn test) ([2]; Example 5 results (1)): promoted with statistical significance
- concentration of type I atelocollagen [2, 4]: 4.0 μg (microgram)/mL
- concentration of type I atelocollagen ([2]; Example 5 results (2), added at 0.001 μM, negative control 1.7 μg/mL): 2.1 μg (microgram)/mL

Compound: N[C@@H](CC(=O)O)C(=O)O [L-aspartic acid, reference compound]
- PIP concentration [1, 3]: 406 ng/mL

Compound: C[C@H](N)C(=O)O [L-alanine, reference compound]
- PIP concentration [1, 5]: 405 ng/mL
- PIP concentration [1, 6]: 413 ng/mL

Compound: magnesium L-ascorbyl phosphate [APM, reference compound]
- PIP concentration ([1]; Example 1, added at 150 μM, two days culture, low-serum medium, negative control 583 ng/mL): 1183 ng/mL
- PIP concentration ([1]; Example 1, added at 250 μM, negative control 583 ng/mL): 1666 ng/mL
- PIP concentration ([1]; Example 1, added at 500 μM, negative control 583 ng/mL): 1416 ng/mL
- effect on promoting type I collagen production compared to the negative control (Bonferroni/Dunn test) ([1]; Example 1): statistically significant effect
- PIP concentration ([1]; Example 2, added at 150 μM, negative control 551 ng/mL): 1183 ng/mL
- PIP concentration ([1]; Example 2, added at 250 μM, negative control 551 ng/mL): 1666 ng/mL
- PIP concentration ([1]; Example 2, added at 500 μM, negative control 551 ng/mL): 1416 ng/mL
- effect on promoting type I collagen production compared to the negative control (Bonferroni/Dunn test) ([1]; Example 2): statistically significant effect
- concentration of type I atelocollagen ([2]; Example 5 results (1), added at 250 μM, negative control 1.8 μg/mL): 3.9 μg (microgram)/mL
- concentration of type I atelocollagen ([2]; Example 5 results (2), added at 250 μM, negative control 1.7 μg/mL): 2.6 μg (microgram)/mL

— patent publication US8637572B2, “Composition for promoting collagen production” (Shiseido Company, Ltd., priority 2009, dated 2014)
